This note sets out measurements from patent publication US6458802B1, “Antidepressant azaheterocyclymethyl derivatives of 2,3-dihydro-1,4-dioxino [2,3-f]quinoline” (Wyeth, priority 2001, dated 2002).

One may read the Ki as a measure of affinity in units of concentration, obtained from inhibition or displacement. Broadly, the melting point is the temperature of the solid-liquid transition. For orientation: IC50 means the concentration at which inhibition is half-maximal.

Read-outs that look alike come from different tables or passages of the source.

One data set addresses T1, human 5HT1A receptors (Homo sapiens, UniProt P08908).
T1 construct: expressed in transfected cells; host or cells: CHO cells
T1 sequence (P08908 1-422): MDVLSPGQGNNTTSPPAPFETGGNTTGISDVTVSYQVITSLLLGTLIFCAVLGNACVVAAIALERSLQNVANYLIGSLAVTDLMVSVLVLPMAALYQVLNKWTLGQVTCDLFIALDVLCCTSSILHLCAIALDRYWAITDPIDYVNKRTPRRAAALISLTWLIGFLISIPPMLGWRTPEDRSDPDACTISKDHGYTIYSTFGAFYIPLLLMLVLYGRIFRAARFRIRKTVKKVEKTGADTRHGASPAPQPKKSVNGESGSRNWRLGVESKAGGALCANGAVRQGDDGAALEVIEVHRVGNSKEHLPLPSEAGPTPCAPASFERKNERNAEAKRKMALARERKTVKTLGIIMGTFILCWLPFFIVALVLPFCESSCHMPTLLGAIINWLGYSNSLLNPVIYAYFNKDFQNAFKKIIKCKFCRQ
Put plainly: [3H] 8-OH-DPAT displacement from the 5HT1A serotonin receptor (transfected CHO cells). In kind it is binding. The text has this:
High affinity for the serotonin 5HT1A receptor was established by testing the claimed compound's ability to displace [^3H] 8-OH-DPAT (dipropylamino-tetralin) from the 5HT1A serotonin receptor following a modification of the procedure of Hall et al., J. Neurochem. 44, 1685 (1985) which utilizes CHO cells stably transfected with human 5HT1A receptors.

The target of another data set is T2, serotonin transporter (Rattus norvegicus, UniProt P31652).
T2 construct: displace ^3H-paroxetine from male rat frontal cortical membranes; from tissue; host or cells: male rat frontal cortex membranes
T2 sequence (P31652 whole entry): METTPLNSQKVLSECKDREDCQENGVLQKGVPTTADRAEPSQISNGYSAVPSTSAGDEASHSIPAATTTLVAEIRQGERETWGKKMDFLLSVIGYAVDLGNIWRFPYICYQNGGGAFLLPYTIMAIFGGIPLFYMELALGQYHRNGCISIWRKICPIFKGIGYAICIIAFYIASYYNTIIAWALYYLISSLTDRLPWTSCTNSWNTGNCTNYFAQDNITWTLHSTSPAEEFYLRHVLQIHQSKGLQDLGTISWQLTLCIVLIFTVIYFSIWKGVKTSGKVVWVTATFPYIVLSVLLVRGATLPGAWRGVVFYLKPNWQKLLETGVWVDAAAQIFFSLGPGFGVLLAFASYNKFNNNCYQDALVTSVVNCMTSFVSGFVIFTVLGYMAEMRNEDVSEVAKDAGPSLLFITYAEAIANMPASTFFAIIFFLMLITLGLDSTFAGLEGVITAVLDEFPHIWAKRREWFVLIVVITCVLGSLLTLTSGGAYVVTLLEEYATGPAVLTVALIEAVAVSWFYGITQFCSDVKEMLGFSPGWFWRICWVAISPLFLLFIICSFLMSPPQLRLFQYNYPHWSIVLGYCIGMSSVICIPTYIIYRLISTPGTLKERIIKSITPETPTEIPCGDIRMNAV
Kind of data set: 3H-paroxetine displacement, affinity for the serotonin transporter. In kind it is binding.

In data set [1] the target is T3, cloned human 5HT1A receptors (Homo sapiens, UniProt P08908).
T3 construct: expressed in transfected cells
T3 sequence (P08908 1-422): T1 sequence (P08908 1-422)
Put plainly: 35S-GTPγS binding assay, antagonist activity at 5HT1A receptors. In kind it is biochemical. To be noted: for IC50: 35S-GTPγS binding, reversal of the effects of the standard agonist 8-OH-DPAT, membranes with cloned human 5HT1A receptors, read-out: 5HT1A Function IC50; for Emax: maximum inhibitory effect in 35S-GTPγS binding versus 8-OH-DPAT, read-out: 5HT1A Function (Imax). How it is done:
Antagonist activity at 5HT1A receptors was established by using a ^35S-GTPγS binding assay similar to that used by Lazareno and Birdsall (Br. J. Pharmacol. 109: 1120, 1993), in which the test compound's ability to affect the binding of 35S-GTPγS to membranes containing cloned human 5HT1A receptors was determined. Agonists produce an increase in binding whereas antagonists produce no increase but rather reverse the effects of the standard agonist 8-OH-DPAT. The test compound's maximum inhibitory effect is represented as the 1max, while its potency is defined by the IC50.
On the technique in general: GTPγS is a poorly hydrolysed GTP analogue; its binding reports G protein activation.

[2] abbreviates: displacement of [3H] 8-OH-DPAT, CHO cells stably transfected with human 5HT1A receptors, read-out: 5HT1A Receptor Affinity KI.

Regarding `Cc1ccc2c3c(ccc2n1)OCC(CN1CC=C(c2c[nH]c4ccccc24)CC1)O3` (stereo not drawn) [Example 9, 2-[4-(1H-Indol-3-yl)-3,6-dihydro-2H-yridin-1-ylmethyl]-8-methyl-2,3-dihydro[1,4]dioxino[2,3-f]quinoline], the melting point was 210 °C. The same molecule registered a Ki on human 5HT1A receptors of 3.02 nM. The same molecule displayed a Ki on serotonin transporter of 2.34 nM. Further, in data set [1], the IC50 was 56.7 nM and the Emax amounted to 98.3%.

For the molecule `CCc1ccc2c3c(ccc2n1)OCC(CN1CC=C(c2c[nH]c4ccccc24)CC1)O3` (stereo not drawn) [Example 13, 8-Ethyl-2-[(4-(1H-indol-3-yl)-3,6-dihydropyridin-1(2H)-yl)methyl]-2,3-dihydro[1,4]dioxino[2,3-f]quinoline], the melting point is 190 °C. Moreover, the affinity at human 5HT1A receptors, expressed as Ki, was 6.82 nM. Also, affinity at serotonin transporter was put at a Ki of 4.9 nM. Also, in data set [1], the concentration for half-maximal inhibition (IC50) came out at 162 nM and the Emax worked out at 88.7%.

Consider `Fc1cc2c(c3cccnc13)OC(CN1CC=C(c3c[nH]c4ccccc34)CC1)CO2` (stereo not drawn) [Example 16, 6-Fluoro-2-[4-(1H-indol-3-yl)-3,6-dihydro-2H-pyridin-1-ylmethyl]-2,3-dihydro[1,4]dioxino[2,3-f]quinoline], for which the melting point was found to be 215 °C. Further, the Ki at human 5HT1A receptors (setting [2]) worked out at 55.9 nM. The molecule further came in with a Ki at serotonin transporter of 21 nM.

In the case of `Cc1ccc2c3c(ccc2n1)OC[C@H](CN1CC=C(c2c[nH]c4c(F)cccc24)CC1)O3` [Example 21], the melting point lay within 205 to 221 °C. This molecule also had a Ki on human 5HT1A receptors of 7.75 nM. At serotonin transporter, this molecule came in with a Ki of 2.94 nM. Also, in data set [1], the IC50 is 51.7 nM and the Emax was 100%.

In turn, `Cc1cnc2ccc3c(c2c1)OC(CN1CC=C(c2c[nH]c4ccccc24)CC1)CO3` (stereo not drawn) [Example 23, 2-[4-(1H-Indol-3-yl)-3,6-dihydro-2H-pyridin-1-ylmethyl]-9-methyl-2,3-dihydro[1,4]dioxino[2,3-f]quinoline] gave a melting point of 211 to 213 °C. For the same molecule, the inhibitory constant (Ki) on human 5HT1A receptors (setting [2]) came out at 7.76 nM. At serotonin transporter, the Ki was 28 nM.
